In the supplement of paper PMC10307832:

Legend:
Experiment in all cases: relative viability (nuclei count vs DMSO), 5 days (fraction); higher = more cells survive
[1] = compound: COc1cc2nccc(Oc3ccc(NC(=O)C4(C(=O)Nc5ccc(F)cc5)CC4)cc3)c2cc1OC [Cabozantinib] + CC(=O)Nc1cccc(-n2c(=O)n(C3CC3)c(=O)c3c(Nc4ccc(I)cc4F)n(C)c(=O)c(C)c32)c1 [Trametinib] (partner 0.02 µM)
Method in brief: (§1)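 Lung cancer cell lines were pin-tool dosed in 1536-well plates on the day after seeding, with either a lone drug or a fixed anchor-drug dose plus five library-drug doses (not always all listed) in √10 steps. Nuclei were counted on 4× images after 5 days. Relative viability is the ratio of treated-well to vehicle-well nuclei counts, with each value a median of duplicate plates.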

Kobe2602 + Navitoclax = compound: C1=CC(=CC=C1NC(=S)NNC2=C(C=C(C=C2[N+](=O)[O-])C(F)(F)F)[N+](=O)[O-])F [Kobe2602] + CC1(C)CCC(c2ccc(Cl)cc2)=C(CN2CCN(c3ccc(C(=O)NS(=O)(=O)c4ccc(N[C@H](CCN5CCOCC5)CSc5ccccc5)c(S(=O)(=O)C(F)(F)F)c4)cc3)CC2)C1 [Navitoclax] (partner 0.5 µM)
Method in brief: as §1

[2] = compound: COc1cc2nccc(Oc3ccc(NC(=O)C4(C(=O)Nc5ccc(F)cc5)CC4)cc3)c2cc1OC [Cabozantinib] + CCNC(=O)c1noc(-c2cc(C(C)C)c(O)cc2O)c1-c1ccc(CN2CCOCC2)cc1 [Luminespib] (partner 0.01 µM)
Method in brief: as §1

Kobe2602 + Phenformin = compound: C1=CC(=CC=C1NC(=S)NNC2=C(C=C(C=C2[N+](=O)[O-])C(F)(F)F)[N+](=O)[O-])F [Kobe2602] + N=C(N)NC(=N)NCCc1ccccc1 [Phenformin] (partner 250 µM)
Method in brief: as §1

Cell Line	relative viability ([1]; first compound 0.02 µM)	relative viability ([1]; first compound 0.06325 µM)	relative viability ([1]; first compound 0.2 µM)	relative viability ([1]; first compound 0.6325 µM)	relative viability ([1]; first compound 2 µM)	relative viability (Kobe2602 + Navitoclax; first compound 0.2 µM)	relative viability (Kobe2602 + Navitoclax; first compound 0.6325 µM)	relative viability (Kobe2602 + Navitoclax; first compound 2 µM)	relative viability (Kobe2602 + Navitoclax; first compound 6.325 µM)	relative viability (Kobe2602 + Navitoclax; first compound 20 µM)	relative viability ([2]; first compound 0.02 µM)	relative viability ([2]; first compound 0.06325 µM)	relative viability ([2]; first compound 0.2 µM)	relative viability ([2]; first compound 0.6325 µM)	relative viability ([2]; first compound 2 µM)	relative viability (Kobe2602 + Phenformin; first compound 0.2 µM)	relative viability (Kobe2602 + Phenformin; first compound 0.6325 µM)	relative viability (Kobe2602 + Phenformin; first compound 2 µM)	relative viability (Kobe2602 + Phenformin; first compound 6.325 µM)	relative viability (Kobe2602 + Phenformin; first compound 20 µM)
NCI-H838	0.487	0.533	0.496	0.51	0.498	1.17	1.22	1.12	1.13	1.17	0.369	0.342	0.3	0.259	0.34	0.549	0.71	0.574	0.577	0.554
NCI-H1734	0.738	0.665	0.716	0.623	0.597	0.899	0.924	0.842	0.837	0.926	0.186	0.206	0.22	0.203	0.186	0.413	0.408	0.422	0.347	0.388
EKVX	0.377	0.406	0.249	0.409	0.351	0.926	0.926	0.955	0.88	0.9	0.859	1.02	0.918	0.751	0.893	0.27	0.237	0.22	0.233	0.248
NCI-H647	0.541	0.451	0.449	0.424	0.41	1.16	1.1	1.06	1.04	1.13	0.155	0.138	0.264	0.251	0.368	0.554	0.549	0.655	0.481	0.441
LOU-NH91	0.778	0.866	0.692	0.785	0.748	0.702	0.816	0.644	0.697	0.68	0.363	0.358		0.385	0.271	0.669	0.775	0.639	0.614	0.658
COR-L23	0.666	0.679	0.679	0.623	0.576	0.951	1.01	1.02	1.06	0.938	0.733	0.823	0.723	0.675	0.658	0.469	0.453	0.427	0.463	0.422
NCI-H1437	0.571	0.498	0.501	0.598	0.55	1.04	1.07	1.11	1.11	0.901	1.14	1.14	1.13	1.09	1	0.335	0.282	0.279	0.297	0.352
EPLC-272H	0.275	0.318	0.275	0.246	0.245	1.07	1.17	1.21	1.45	0.045	0.418	0.282	0.14	0.476	0.256	0.313	0.32	0.31	0.323	0.294
ChaGo-K-1	0.838	0.906	0.928	0.893	0.899	1.12	1.26	1.02	1.05	0.933	0.638	0.757	0.737	0.765	0.447	0.564	0.574	0.523	0.463	0.463
NCI-H1666	0.845	0.83	0.798	0.883	0.878	1.02	0.982		0.77	0.924	0.968	1	1.02	1.04	1.06	0.594	0.572	0.534	0.581	0.573
NCI-H441	0.339	0.502	0.421	0.441	0.361	0.602	0.807	0.601	0.575	0.679	0.326	0.404	0.306	0.324	0.375	0.801	0.81	0.876	0.814	0.903
HCC-44	1.04	1.15	1.21	1.06	1.04	0.989	0.998	0.928	0.963	1.02		1.15	1.08	1	1.02	0.207	0.21	0.249	0.239	0.322
NCI-H23		0.358	0.42	0.377	0.389	0.744	0.741	0.97	0.679	0.993		0.218	0.199	0.229	0.205	0.75	0.782	0.762	0.723	0.814
SW 1573	0.57	0.631	0.588	0.516	0.436	1.05	1.14	0.96	1.02	0.946	0.22	0.223	0.221	0.151	0.122	0.346	0.47	0.378	0.346	0.168
LU99A	0.475	0.56	0.535	0.573	0.41	0.817	0.87	0.811	0.732	0.781	0.283	0.268	0.238	0.196	0.261	0.814	0.916	0.79	0.906	0.931
SK-LU-1	0.475	0.58	0.623	0.4	0.451	0.818	0.984	0.713	1.01	0.967	0.225	0.209	0.207	0.192	0.21	0.618	0.682	0.584	0.526	0.597
